In patent US20200085789A1, “USE OF A PROTEASOME INHIBITOR FOR THE TREATMENT OF CENTRAL NERVOUS SYSTEM (CNS) CANCERS” (Celgene International II Sàrl, priority 2017, published 2020):

Experiments:
[1] = Adverse events and DLT, MRZ with TMZ and RT in newly diagnosed WHO Grade IV malignant glioma; format: in vivo, human
Description: The clinical trial was a dose-escalation study (Stage 1, MRZ+TMZ+RT or MRZ+TMZ) consisting of two arms—concomitant and adjuvant—in each, MRZ added to standard of care at increasing IV doses in a 3+3 design, and a dose expansion study at RP2D (Stage 2, RP2D MRZ+TMZ+RT followed by RP2D MRZ+TMZ) first with concomitant and then with adjuvant standard of care.
In the experimental Stage 1 Concomitant Treatment (MRZ+TMZ+RT) Drug MRZ dose ranges from 0.55 mg/m^2 to 1.0 mg/m^2 given IV over 10 minutes on days 1, 8, 15, 29, and 36 during concomitant treatment. MRZ dose ranges from 0.55 to 1.0 mg/m^2 given IV over 10 minutes on Days 1, 8, 15 every 28 days during adjuvant treatment. TMZ will be administered once daily, 7 days/week, for 6 weeks, starting on Day 1, at a dose of 75 mg/m^2 during concomitant treatment. TMZ will be administered once daily on days 1-5 every cycle (28 day cycles, up to 12 cycles), dose range 150 to 200 mg/m^2 during adjuvant treatment. Radiation (RT) will be administered once daily 5 days/week, for 30 doses over 6 weeks to a total dose of 60 Gy, staring on Day 1 during concomitant treatment. Patients who complete concomitant treatment may continue on to adjuvant treatment, in the adjuvant cohort RT and TMZ treatment is received outside of protocol therapy.
In the experimental Stage 2 dose expansion 18 additional evaluable patients were enrolled in a cohort in which concomitant treatment (MRZ+TMZ+RT) is followed by adjuvant treatment (MRZ+TMZ) to confirm the MTD for each treatment regime as determined in the dose-escalation (Stage 1), and to assess preliminary activity of the recommended Phase 2 dose (RP2D, 0.8 mg/m^2). Table 44 and Table 45 give the treatment parameters of the present study and demographics of study participants.
Methods: Patients enrolled in separate concomitant (TMZ+RT+MRZ at 0.55, 0.7, 0.8, and 1.0 mg/m^2 dose levels DL) and adjuvant (TMZ+MRZ) cohorts in 3+3 design, followed by dose-expansion at the RD (concomitant followed by adjuvant). MRZ (10 min IV infusion): Concomitant (42 days (D), on D1, 8, 15, 29, 36; Adjuvant (28D-cycle) on D1, 8, 15.
Outcome Measures: Primary Outcome Measures: (1) Determine MRZ maximum tolerated dose (MTD) and recommended phase 2 dose (RP2D) for both concomitant treatment (MRZ+TMZ+RT) and adjuvant treatment (MRZ+TMZ). Time Frame: 42-day concomitant treatment and 28-day Cycle 1 adjuvant treatment. Description: Assess dose-limiting toxicities (DLTs) in each dose-escalation arm.
Methods: Patients enrolled in separate concomitant (TMZ/RT+MRZ) and adjuvant (TMZ+MRZ) treatment cohorts in dose-escalation (3+3 design, MRZ at 0.55, 0.7, 0.8, and 1.0 mg/m^2), followed by dose-expansion at the RD in concomitant followed by adjuvant treatment. MRZ (10 min IV infusion): Concomitant Day 1, 8, 15, 29, 36; Adjuvant (28D-cycle) Day 1, 8, 15.

[2] = system: proteasome (CT-L, T-L and C-L activity); test: Blood proteasome inhibition (CT-L, T-L, C-L activity in packed whole blood and PBMC lysates); format: in vivo, human; conditions: for % C-L inhibition / % CT-L inhibition / % T-L inhibition: PWB, post-Marizomib infusion (peak effect)
Source text: The drugs were infused on 28-Day Cycles.
Change in proteasome activities in packed whole blood (PWB) lysates and peripheral blood mononuclear cell (PBMC) lysates, comparing pre-drug and post drug levels on Days 1, 8, and 15 of Cycle 1; Days 1 and 15 of each Cycle thereafter; and at the End-of Treatment Visit.
The laboratory correlates include assessment of the percentage inhibition of proteasome function (evaluated by measurement of CT-L, T-L and C-L activity in blood isolates such as whole blood and PBMC lysates.
PD analysis will include change in proteasome activities (whole blood lysates and PBMC lysates) by comparing pre-drug and post drug levels on Days 1, 8, and 15 (i.e., for each dose) of Cycle 1 and Days 1 and 15 (i.e., for the first and last doses) of each cycle thereafter.

[3] = Cohorts 1-3 0.55, 0.7, 0.8 mg/m^2 (21)
[4] = all grades, Cohort 2 0.7 mg/m^2 (9), concomitant and adjuvant combined
[5] = all grades, Cohort 3 0.8 mg/m^2 (6), concomitant and adjuvant combined
[6] = all grades, Cohort 4 1.0 mg/m^2 (12), concomitant and adjuvant combined
[7] = all grades, all dose-escalation cohorts 0.55-1.0 mg/m^2, N = 33, concomitant and adjuvant combined

C[C@@]12OC(=O)[C@]1([C@@H](O)[C@@H]1C=CCCC1)NC(=O)[C@@H]2CCCl [MRZ, marizomib]
Most common TEAEs (≥20% patients) ([1]; 33 patients, dose-escalation): fatigue, nausea, vomiting, hallucination, ataxia, headache
Anorexia, Total # Patients with Grade 3 Event [1]: 0
Ataxia, Total # Patients with Grade 3 Event [1]: 3
Confusion, Total # Patients with Grade 3 Event [1]: 2
Constipation, Total # Patients with Grade 3 Event [1]: 0
Diarrhea, Total # Patients with Grade 3 Event [1]: 0
Dizziness, Total # Patients with Grade 3 Event [1]: 0
Fatigue, Total # Patients with Grade 3 Event [1]: 2
Hallucination, Total # Patients with Grade 3 Event [1]: 0
Headache, Total # Patients with Grade 3 Event [1]: 2
Nausea, Total # Patients with Grade 3 Event [1]: 0
Vomiting, Total # Patients with Grade 3 Event [1]: 0
Anorexia, Total # Patients with Grade 3 Event [1, 3]: 0
Ataxia, Total # Patients with Grade 3 Event [1, 3]: 1
Confusion, Total # Patients with Grade 3 Event [1, 3]: 0
Constipation, Total # Patients with Grade 3 Event [1, 3]: 0
Diarrhea, Total # Patients with Grade 3 Event [1, 3]: 0
Dizziness, Total # Patients with Grade 3 Event [1, 3]: 0
Fatigue, Total # Patients with Grade 3 Event [1, 3]: 5
Hallucination, Total # Patients with Grade 3 Event [1, 3]: 1
Headache, Total # Patients with Grade 3 Event [1, 3]: 0
Nausea, Total # Patients with Grade 3 Event [1, 3]: 0
Vomiting, Total # Patients with Grade 3 Event [1, 3]: 1
patients with at least one Grade ≥3 TEAE ([1]; MRZ 0.7 mg/m^2, of 9 (Example 6)): 2
patients with Grade 3 TEAEs ([1]; MRZ 0.7 mg/m^2, of 9, as of Feb. 1, 2018): 4
patients with at least one Grade ≥3 TEAE ([1]; MRZ 0.8 mg/m^2, of 6 (Example 6)): 1
patients with Grade 3 TEAEs ([1]; MRZ 0.8 mg/m^2, of 6, as of Feb. 1, 2018): 2
patients with DLTs ([1]; MRZ 1.0 mg/m^2, concomitant and adjuvant): 5/12
patients with at least one Grade ≥3 TEAE ([1]; MRZ 1.0 mg/m^2, of 12): 11
tolerability ([1]; MRZ with SOC in ndGBM): well tolerated
Anorexia, incidence of treatment-related adverse event [1, 4]: 3
Ataxia, incidence of treatment-related adverse event [1, 4]: 1
Confusion, incidence of treatment-related adverse event [1, 4]: 4
Constipation, incidence of treatment-related adverse event [1, 4]: 6
Diarrhea, incidence of treatment-related adverse event [1, 4]: 2
Dizziness, incidence of treatment-related adverse event [1, 4]: 2
Fatigue, incidence of treatment-related adverse event [1, 4]: 8
Hallucination, incidence of treatment-related adverse event [1, 4]: 4
Headache, incidence of treatment-related adverse event [1, 4]: 3
Nausea, incidence of treatment-related adverse event [1, 4]: 4
Vomiting, incidence of treatment-related adverse event [1, 4]: 4
Anorexia, incidence of treatment-related adverse event [1, 5]: 2
Ataxia, incidence of treatment-related adverse event [1, 5]: 1
Confusion, incidence of treatment-related adverse event [1, 5]: 1
Constipation, incidence of treatment-related adverse event [1, 5]: 2
Diarrhea, incidence of treatment-related adverse event [1, 5]: 2
Dizziness, incidence of treatment-related adverse event [1, 5]: 1
Fatigue, incidence of treatment-related adverse event [1, 5]: 5
Hallucination, incidence of treatment-related adverse event [1, 5]: 2
Headache, incidence of treatment-related adverse event [1, 5]: 2
Nausea, incidence of treatment-related adverse event [1, 5]: 5
Vomiting, incidence of treatment-related adverse event [1, 5]: 4
Anorexia, incidence of treatment-related adverse event [1, 6]: 1
Ataxia, incidence of treatment-related adverse event [1, 6]: 4
Confusion, incidence of treatment-related adverse event [1, 6]: 3
Constipation, incidence of treatment-related adverse event [1, 6]: 4
Diarrhea, incidence of treatment-related adverse event [1, 6]: 1
Dizziness, incidence of treatment-related adverse event [1, 6]: 1
Fatigue, incidence of treatment-related adverse event [1, 6]: 8
Hallucination, incidence of treatment-related adverse event [1, 6]: 4
Headache, incidence of treatment-related adverse event [1, 6]: 4
Nausea, incidence of treatment-related adverse event [1, 6]: 5
Vomiting, incidence of treatment-related adverse event [1, 6]: 4
Anorexia, treatment-related adverse event, total in parentheses [1, 7]: Anorexia (8)
Ataxia, treatment-related adverse event, total in parentheses [1, 7]: Ataxia (8)
Confusion, treatment-related adverse event, total in parentheses [1, 7]: Confusion (9)
Constipation, treatment-related adverse event, total in parentheses [1, 7]: Constipation (11)
Diarrhea, treatment-related adverse event, total in parentheses [1, 7]: Diarrhea (7)
Dizziness, treatment-related adverse event, total in parentheses [1, 7]: Dizziness (6)
Fatigue, treatment-related adverse event, total in parentheses [1, 7]: Fatigue (26)
Hallucination, treatment-related adverse event, total in parentheses [1, 7]: Hallucination (11)
Headache, treatment-related adverse event, total in parentheses [1, 7]: Headache (10)
Nausea, treatment-related adverse event, total in parentheses [1, 7]: Nausea (17)
Vomiting, treatment-related adverse event, total in parentheses [1, 7]: Vomiting (12)
RP2D / recommended dose (RD) of MRZ ([1]; with TMZ and RT (SOC), ndGBM): 0.8 mg/m^2
% C-L inhibition ([2]; 0.7 mg/m^2): 50.4 ± 9.1 (3) %
% CT-L inhibition ([2]; 0.7 mg/m^2): 100 ± 0 (3) %
% T-L inhibition ([2]; 0.7 mg/m^2): 77.3 ± 10.5 (3) %
% C-L inhibition ([2]; 0.8 mg/m^2): 51.9 ± 8.3 (3) %
% CT-L inhibition ([2]; 0.8 mg/m^2): 100 ± 0 (3) %
% T-L inhibition ([2]; 0.8 mg/m^2): 69.3 ± 7.2 (3) %
Proteasome inhibition on chymotrypsin-like (CT-L) domains ([2]; cohorts 1 and 2): maximal
trypsin-like (T-L) and caspase-like (C-L) activity ([2]; cohorts 1 vs 2): Dose-dependent inhibition
